ChEMBL document CHEMBL1782037, “Discovery and characterization of a nonphosphorylated cyclic peptide inhibitor of the peptidylprolyl isomerase, Pin1” (J Med Chem, 2011)
Active and inactive are the calls of the source. The calls are words filed in the database; no cut-off is given here. Positions of bridges follow the written chain, without caps; N, C: chain ends. Residues, ends and D or L forms follow the SMILES beside them.

How the values were obtained:
[1] = target: T1, Peptidyl-prolyl cis-trans isomerase NIMA-interacting 1 (Homo sapiens, UniProt Q13526); experiment: Inhibition of human GST-tagged-Pin1 PPIase activity using Suc-AEPF-pNA as substrate by Michaelis-Menten equation
[2] = target: T1, Peptidyl-prolyl cis-trans isomerase NIMA-interacting 1; experiment: Competitive inhibition of human GST-tagged-Pin1 PPIase activity using WFYpSPR-pNA as substrate by Michaelis-Menten equation
[3] = Solubility of the compound; type: physicochemical
[4] = target: T1, Peptidyl-prolyl cis-trans isomerase NIMA-interacting 1; experiment: Binding affinity to human Pin1 PPIase domain at 480 uM by NMR chemical shift perturbation method
[5] = target: T1, Peptidyl-prolyl cis-trans isomerase NIMA-interacting 1; experiment: Binding affinity to human Pin1 WW domain at 480 uM by NMR chemical shift perturbation method
[6] = target: T1, Peptidyl-prolyl cis-trans isomerase NIMA-interacting 1; experiment: Binding affinity to human Pin1 active site at 200 uM by NMR study
[7] = target: T1, Peptidyl-prolyl cis-trans isomerase NIMA-interacting 1; experiment: Binding affinity to human Pin1 PPIase domain at 200 uM by agarose gel electrophoresis
[8] = target: T1, Peptidyl-prolyl cis-trans isomerase NIMA-interacting 1; experiment: Binding affinity to human Pin1 WW domain at 200 uM by agarose gel electrophoresis

T1 sequence (Q13526 whole entry): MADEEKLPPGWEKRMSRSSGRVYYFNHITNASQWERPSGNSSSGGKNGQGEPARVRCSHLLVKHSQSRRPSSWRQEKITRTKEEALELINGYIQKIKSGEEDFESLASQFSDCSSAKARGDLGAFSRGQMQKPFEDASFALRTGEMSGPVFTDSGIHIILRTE

## CC[C@H](C)[C@@H]1NC(=O)[C@H](CCC(=O)O)NC(=O)[C@H](C(C)C)NC(=O)[C@H](CCC(=O)O)NC(=O)[C@@H]2CCCN2C(=O)[C@H](Cc2ccc(O)cc2)NC(=O)[C@H](CCCN=C(N)N)NC(=O)[C@@H](N)CSSC[C@@H](C(=O)O)NC1=O [CYCLIC CRYPEVEIC] (H-CRYPEVEIC-OH; disulfide 1-9)
[1]
  Ki: 0.52 µM
[2]
  Ki: 200 nM
[3]
  solubility: soluble

## CC[C@H](C)[C@H](NC(=O)[C@H](CCC(=O)O)NC(=O)[C@@H](NC(=O)[C@H](CCC(=O)O)NC(=O)[C@@H]1CCCN1C(=O)[C@H](Cc1ccc(O)cc1)NC(=O)[C@H](CCCN=C(N)N)NC(=O)[C@@H](N)CS)C(C)C)C(=O)N[C@@H](CS)C(=O)O [CRYPEVEIC] (H-CRYPEVEIC-OH)
[1]
  Ki: 44 µM

## CC[C@H](C)[C@@H]1NC(=O)[C@H](CCC(=O)O)NC(=O)[C@H](C(C)C)NC(=O)[C@H](CCC(=O)O)NC(=O)[C@@H]2CCCN2C(=O)[C@H](Cc2ccc(O)cc2)NC(=O)[C@H](CCCNC(=N)N)NC(=O)[C@@H](N)CSSC[C@@H](C(=O)O)NC1=O (H-CRYPEVEIC-OH; disulfide 1-9)
[4]
  Activity: Active
[5]
  Activity: inactive
[6]
  Activity: Active
[7]
  Activity: Active
[8]
  Activity: inactive
